# Test results: ChEMBL document CHEMBL4184242, “Synthesis and antibacterial studies of teixobactin analogues with non-isostere substitution of enduracididine” (2018)
# Columns and labels:
# Staphylococcus aureus [1] = assay: Antibacterial activity against methicillin-susceptible Staphylococcus aureus ATCC 29213 by CLSI M100-S17 protocol based broth dilution method; assay type: functional
# Staphylococcus aureus [2] = assay: Antibacterial activity against methicillin-resistant Staphylococcus aureus isolate SA1114 by CLSI M100-S17 protocol based broth dilution method; assay type: functional
Structure (SMILES),MIC (Staphylococcus aureus [1]) [µg/mL],MIC (Staphylococcus aureus [2]) [µg/mL]
CC[C@@H](C)[C@@H](NC(=O)[C@@H](CCC(N)=O)NC(=O)[C@H](CO)NC(=O)[C@@H](NC(=O)[C@@H](Cc1ccccc1)NC)[C@@H](C)CC)C(=O)N[C@H](C(=O)N[C@@H](CO)C(=O)N[C@H]1C(=O)N[C@@H](C)C(=O)N[C@@H](Cc2ccc([N+](=O)[O-])cc2)C(=O)N[C@@H]([C@@H](C)CC)C(=O)O[C@H]1C)[C@@H](C)CC,0.5,4
CCC[C@@H]1NC(=O)[C@H](C)NC(=O)[C@H](NC(=O)[C@H](CO)NC(=O)[C@@H](NC(=O)[C@H](NC(=O)[C@@H](CCC(N)=O)NC(=O)[C@H](CO)NC(=O)[C@@H](NC(=O)[C@@H](Cc2ccccc2)NC)[C@@H](C)CC)[C@H](C)CC)[C@@H](C)CC)[C@H](C)OC(=O)[C@H]([C@@H](C)CC)NC1=O,0.25,1 to 2
CC[C@@H](C)[C@@H](NC(=O)[C@@H](CCC(N)=O)NC(=O)[C@H](CO)NC(=O)[C@@H](NC(=O)[C@@H](Cc1ccccc1)NC)[C@@H](C)CC)C(=O)N[C@H](C(=O)N[C@@H](CO)C(=O)N[C@H]1C(=O)N[C@@H](C)C(=O)N[C@@H](Cc2c[nH]c3ccccc23)C(=O)N[C@@H]([C@@H](C)CC)C(=O)O[C@H]1C)[C@@H](C)CC,8,8 to 16
CC[C@@H](C)[C@@H](NC(=O)[C@@H](CCC(N)=O)NC(=O)[C@H](CO)NC(=O)[C@@H](NC(=O)[C@@H](Cc1ccccc1)NC)[C@@H](C)CC)C(=O)N[C@H](C(=O)N[C@@H](CO)C(=O)N[C@H]1C(=O)N[C@@H](C)C(=O)N[C@@H](CC(=O)O)C(=O)N[C@@H]([C@@H](C)CC)C(=O)O[C@H]1C)[C@@H](C)CC,≥ 32,≥ 32
CC[C@@H](C)[C@@H](NC(=O)[C@@H](CCC(N)=O)NC(=O)[C@H](CO)NC(=O)[C@@H](NC(=O)[C@@H](Cc1ccccc1)NC)[C@@H](C)CC)C(=O)N[C@H](C(=O)N[C@@H](CO)C(=O)N[C@H]1C(=O)N[C@@H](C)C(=O)N[C@@H](Cc2ccc(O)cc2)C(=O)N[C@@H]([C@@H](C)CC)C(=O)O[C@H]1C)[C@@H](C)CC,2,8
CC[C@@H](C)[C@@H](NC(=O)[C@@H](CCC(N)=O)NC(=O)[C@H](CO)NC(=O)[C@@H](NC(=O)[C@@H](Cc1ccccc1)NC)[C@@H](C)CC)C(=O)N[C@H](C(=O)N[C@@H](CO)C(=O)N[C@H]1C(=O)N[C@@H](C)C(=O)N[C@@H](CO)C(=O)N[C@@H]([C@@H](C)CC)C(=O)O[C@H]1C)[C@@H](C)CC,16,16
CC[C@@H](C)[C@@H](NC(=O)[C@@H](CCC(N)=O)NC(=O)[C@H](CO)NC(=O)[C@@H](NC(=O)[C@@H](Cc1ccccc1)NC)[C@@H](C)CC)C(=O)N[C@H](C(=O)N[C@@H](CO)C(=O)N[C@H]1C(=O)N[C@@H](C)C(=O)N[C@@H](CSC(C)(C)C)C(=O)N[C@@H]([C@@H](C)CC)C(=O)O[C@H]1C)[C@@H](C)CC,2,4
CC[C@@H](C)[C@@H](NC(=O)[C@@H](CCC(N)=O)NC(=O)[C@H](CO)NC(=O)[C@@H](NC(=O)[C@@H](Cc1ccccc1)NC)[C@@H](C)CC)C(=O)N[C@H](C(=O)N[C@@H](CO)C(=O)N[C@H]1C(=O)N[C@@H](C)C(=O)N[C@@H](Cc2ccc(Br)cc2)C(=O)N[C@@H]([C@@H](C)CC)C(=O)O[C@H]1C)[C@@H](C)CC,2,≥ 32
CC[C@@H](C)[C@@H](NC(=O)[C@@H](CCC(N)=O)NC(=O)[C@H](CO)NC(=O)[C@@H](NC(=O)[C@@H](Cc1ccccc1)NC)[C@@H](C)CC)C(=O)N[C@H](C(=O)N[C@@H](CO)C(=O)N[C@H]1C(=O)N[C@@H](C)C(=O)N[C@@H]([C@@H](C)O)C(=O)N[C@@H]([C@@H](C)CC)C(=O)O[C@H]1C)[C@@H](C)CC,8,16
CC[C@@H](C)[C@@H](NC(=O)[C@@H](CCC(N)=O)NC(=O)[C@H](CO)NC(=O)[C@@H](NC(=O)[C@@H](Cc1ccccc1)NC)[C@@H](C)CC)C(=O)N[C@H](C(=O)N[C@@H](CO)C(=O)N[C@H]1C(=O)N[C@@H](C)C(=O)N[C@@H](C2CCCCC2)C(=O)N[C@@H]([C@@H](C)CC)C(=O)O[C@H]1C)[C@@H](C)CC,0.25,1
CC[C@@H](C)[C@@H](NC(=O)[C@@H](CCC(N)=O)NC(=O)[C@H](CO)NC(=O)[C@@H](NC(=O)[C@@H](Cc1ccccc1)NC)[C@@H](C)CC)C(=O)N[C@H](C(=O)N[C@@H](CO)C(=O)N[C@H]1C(=O)N[C@@H](C)C(=O)N[C@@H](CC2CCCCC2)C(=O)N[C@@H]([C@@H](C)CC)C(=O)O[C@H]1C)[C@@H](C)CC,0.5,2
CC[C@@H](C)[C@@H](NC(=O)[C@@H](CCC(N)=O)NC(=O)[C@H](CO)NC(=O)[C@@H](NC(=O)[C@@H](Cc1ccccc1)NC)[C@@H](C)CC)C(=O)N[C@H](C(=O)N[C@@H](CO)C(=O)N[C@H]1C(=O)N[C@@H](C)C(=O)N[C@@H](CCC(N)=O)C(=O)N[C@@H]([C@@H](C)CC)C(=O)O[C@H]1C)[C@@H](C)CC,16,16
CC[C@@H](C)[C@@H](NC(=O)[C@@H](CCC(N)=O)NC(=O)[C@H](CO)NC(=O)[C@@H](NC(=O)[C@@H](Cc1ccccc1)NC)[C@@H](C)CC)C(=O)N[C@H](C(=O)N[C@@H](CO)C(=O)N[C@H]1C(=O)N[C@@H](C)C(=O)NCC(=O)N[C@@H]([C@@H](C)CC)C(=O)O[C@H]1C)[C@@H](C)CC,2,8 to 16
CC[C@@H](C)[C@@H](NC(=O)[C@@H](CCC(N)=O)NC(=O)[C@H](CO)NC(=O)[C@@H](NC(=O)[C@@H](Cc1ccccc1)NC)[C@@H](C)CC)C(=O)N[C@H](C(=O)N[C@@H](CO)C(=O)N[C@H]1C(=O)N[C@@H](C)C(=O)N[C@@H](CC2CC2)C(=O)N[C@@H]([C@@H](C)CC)C(=O)O[C@H]1C)[C@@H](C)CC,0.5,2
CC[C@@H](C)[C@@H](NC(=O)[C@@H](CCC(N)=O)NC(=O)[C@H](CO)NC(=O)[C@@H](NC(=O)[C@@H](Cc1ccccc1)NC)[C@@H](C)CC)C(=O)N[C@H](C(=O)N[C@@H](CO)C(=O)N[C@H]1C(=O)N[C@@H](C)C(=O)N[C@@H](CCSC)C(=O)N[C@@H]([C@@H](C)CC)C(=O)O[C@H]1C)[C@@H](C)CC,0.25,1
CC[C@@H](C)[C@@H](NC(=O)[C@@H](CCC(N)=O)NC(=O)[C@H](CO)NC(=O)[C@@H](NC(=O)[C@@H](Cc1ccccc1)NC)[C@@H](C)CC)C(=O)N[C@H](C(=O)N[C@@H](CO)C(=O)N[C@H]1C(=O)N[C@@H](C)C(=O)N2CCC[C@H]2C(=O)N[C@@H]([C@@H](C)CC)C(=O)O[C@H]1C)[C@@H](C)CC,≥ 32,≥ 32
CC[C@@H](C)[C@@H](NC(=O)[C@@H](CCC(N)=O)NC(=O)[C@H](CO)NC(=O)[C@@H](NC(=O)[C@@H](Cc1ccccc1)NC)[C@@H](C)CC)C(=O)N[C@H](C(=O)N[C@@H](CO)C(=O)N[C@H]1C(=O)N[C@@H](C)C(=O)N[C@@H](CCC(=O)O)C(=O)N[C@@H]([C@@H](C)CC)C(=O)O[C@H]1C)[C@@H](C)CC,≥ 32,≥ 32
CC[C@@H](C)[C@@H](NC(=O)[C@@H](CCC(N)=O)NC(=O)[C@H](CO)NC(=O)[C@@H](NC(=O)[C@@H](Cc1ccccc1)NC)[C@@H](C)CC)C(=O)N[C@H](C(=O)N[C@@H](CO)C(=O)N[C@H]1C(=O)N[C@@H](C)C(=O)N[C@@H](Cc2ccc(O)c([N+](=O)[O-])c2)C(=O)N[C@@H]([C@@H](C)CC)C(=O)O[C@H]1C)[C@@H](C)CC,1,4
CC[C@@H](C)[C@@H](NC(=O)[C@@H](CCC(N)=O)NC(=O)[C@H](CO)NC(=O)[C@@H](NC(=O)[C@@H](Cc1ccccc1)NC)[C@@H](C)CC)C(=O)N[C@H](C(=O)N[C@@H](CO)C(=O)N[C@H]1C(=O)N[C@@H](C)C(=O)N[C@@H](C(C)C)C(=O)N[C@@H]([C@@H](C)CC)C(=O)O[C@H]1C)[C@@H](C)CC,0.5,2
CC[C@@H]1NC(=O)[C@H](C)NC(=O)[C@H](NC(=O)[C@H](CO)NC(=O)[C@@H](NC(=O)[C@H](NC(=O)[C@@H](CCC(N)=O)NC(=O)[C@H](CO)NC(=O)[C@@H](NC(=O)[C@@H](Cc2ccccc2)NC)[C@@H](C)CC)[C@H](C)CC)[C@@H](C)CC)[C@H](C)OC(=O)[C@H]([C@@H](C)CC)NC1=O,1,4
CC[C@@H](C)[C@@H](NC(=O)[C@@H](CCC(N)=O)NC(=O)[C@H](CO)NC(=O)[C@@H](NC(=O)[C@@H](Cc1ccccc1)NC)[C@@H](C)CC)C(=O)N[C@H](C(=O)N[C@@H](CO)C(=O)N[C@H]1C(=O)N[C@@H](C)C(=O)N[C@@H](CC(C)C)C(=O)N[C@@H]([C@@H](C)CC)C(=O)O[C@H]1C)[C@@H](C)CC,0.5,2
CC[C@@H](C)[C@@H](NC(=O)[C@@H](CCC(N)=O)NC(=O)[C@H](CO)NC(=O)[C@@H](NC(=O)[C@@H](Cc1ccccc1)NC)[C@@H](C)CC)C(=O)N[C@H](C(=O)N[C@@H](CO)C(=O)N[C@H]1C(=O)N[C@@H](C)C(=O)N[C@@H](Cc2ccccc2)C(=O)N[C@@H]([C@@H](C)CC)C(=O)O[C@H]1C)[C@@H](C)CC,1,4
CC[C@@H](C)[C@@H](NC(=O)[C@@H](CCC(N)=O)NC(=O)[C@H](CO)NC(=O)[C@@H](NC(=O)[C@@H](Cc1ccccc1)NC)[C@@H](C)CC)C(=O)N[C@H](C(=O)N[C@@H](CO)C(=O)N[C@H]1C(=O)N[C@@H](C)C(=O)N[C@@H](Cc2ccc(F)cc2)C(=O)N[C@@H]([C@@H](C)CC)C(=O)O[C@H]1C)[C@@H](C)CC,0.5,4
CC[C@@H](C)[C@@H](NC(=O)[C@@H](CCC(N)=O)NC(=O)[C@H](CO)NC(=O)[C@@H](NC(=O)[C@@H](Cc1ccccc1)NC)[C@@H](C)CC)C(=O)N[C@H](C(=O)N[C@@H](CO)C(=O)N[C@H]1C(=O)N[C@@H](C)C(=O)N[C@@H](Cc2ccc(OC)cc2)C(=O)N[C@@H]([C@@H](C)CC)C(=O)O[C@H]1C)[C@@H](C)CC,1,≥ 32
CC[C@@H](C)[C@@H](NC(=O)[C@@H](CCC(N)=O)NC(=O)[C@H](CO)NC(=O)[C@@H](NC(=O)[C@@H](Cc1ccccc1)NC)[C@@H](C)CC)C(=O)N[C@H](C(=O)N[C@@H](CO)C(=O)N[C@H]1C(=O)N[C@@H](C)C(=O)N[C@@H](Cc2ccc(Cl)cc2)C(=O)N[C@@H]([C@@H](C)CC)C(=O)O[C@H]1C)[C@@H](C)CC,1,4
